# Publication PMC6150346, “Disrupting VEGF–VEGFR1 Interaction: De Novo Designed Linear Helical Peptides to Mimic the VEGF13-25 Fragment” (Molecules : A Journal of Synthetic Chemistry and Natural …, 2017)
# Like-named read-outs stand apart in the source and are kept apart here.
# Experiments:
# [1] = target: T1, extracellular domain (ECD, D1–D7) of VEGFR1 (Homo sapiens, UniProt P17948); experiment: Chemiluminescent competition (displacement) assay: biotinylated VEGF165 (VEGF-A) vs peptide on coated VEGFR1; type: binding; settings: for % of Displacement, 100 μM: biotinylated VEGF-A (131 pM btVEGF165) displaced by 100 μM peptide on VEGFR1 ECD (D1–D7), PBS 1% DMSO, 3 h 37 °C; for % of Displacement, 100 μM / % of Displacement, 30 μM: chemiluminescence; for % of Displacement, 100 μM / % of Displacement, 30 μM / IC50: three experiments in triplicate; for % of Displacement, 30 μM + EDTA: biotinylated VEGF-A displaced by 30 μM peptide in the presence of EDTA on VEGFR1 ECD (D1–D7), to avoid false positives from metals or aggregation; for % of Displacement, 30 μM: biotinylated VEGF-A displaced by 30 μM peptide on VEGFR1 ECD (D1–D7); for IC50: dose–response displacement assay on VEGFR1, log(inhibitor) vs. response fit, GraphPad Prism, read-out: IC50 (95% Confident Interval), relative inhibitory concentration 50
# T1 construct: VEGFR-1 D1-D7 (ECD domain)/Fc Chimera; purchased Bio-techne R&D, Abingdon, UK
# T1 sequence (P17948 27-758 limits assumed): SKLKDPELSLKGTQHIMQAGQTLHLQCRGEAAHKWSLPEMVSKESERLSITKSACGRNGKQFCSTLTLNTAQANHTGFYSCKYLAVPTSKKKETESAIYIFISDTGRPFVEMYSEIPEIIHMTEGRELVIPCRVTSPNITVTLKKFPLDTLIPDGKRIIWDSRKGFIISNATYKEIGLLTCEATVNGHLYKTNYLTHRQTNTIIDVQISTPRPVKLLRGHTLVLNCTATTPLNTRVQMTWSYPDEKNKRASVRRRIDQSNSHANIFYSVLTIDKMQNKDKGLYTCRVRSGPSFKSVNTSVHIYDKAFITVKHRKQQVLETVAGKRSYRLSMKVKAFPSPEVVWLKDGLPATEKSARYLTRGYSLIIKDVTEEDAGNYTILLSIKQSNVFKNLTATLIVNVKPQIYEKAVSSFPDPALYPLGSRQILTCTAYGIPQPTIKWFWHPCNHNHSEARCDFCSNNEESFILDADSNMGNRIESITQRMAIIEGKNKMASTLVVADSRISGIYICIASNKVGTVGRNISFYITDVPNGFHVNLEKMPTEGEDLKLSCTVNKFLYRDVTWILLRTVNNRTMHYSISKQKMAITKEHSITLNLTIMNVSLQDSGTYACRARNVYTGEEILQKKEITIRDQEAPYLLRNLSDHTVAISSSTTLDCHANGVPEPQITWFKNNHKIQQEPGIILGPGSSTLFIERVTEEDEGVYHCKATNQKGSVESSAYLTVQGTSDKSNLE
# Experimental: The binding studies were performed on VEGF isoform VEGF-A (VEGF165) that is the most commonly involved in pathological angiogenesis. Compounds were first evaluated for their ability to displace biotinylated VEGF-A at two different doses, 30 and 100 μM (Table 2). A chemiluminescent assay, relying on competition between tested compounds and biotinylated VEGF-A for binding to the extracellular domain of recombinant VEGFR1, was used.
# As described by Muller Y. A. et al., the surface of white high-binding 96-well microplate (Corning Life Sciences, Amsterdam, The Netherlands) was coated with 100 μL of phosphate-buffered saline solution (PBS, pH 7.4) containing 200 ng/mL of VEGFR-1 D1-D7 (ECD domain)/Fc Chimera or 150 ng/mL of VEGFR1 D1-D3/Fc chimera (Bio-techne R&D, Abingdon, UK) and incubated at 4 °C overnight. After three washes with 250 μL of PBS 0.1%, (v/v) tween 20 (buffer A), the plate was blocked by 200 μL of PBS with 3% (w/v) of BSA and stirred at 37 °C for 2 h. The plate was washed three times with buffer A. Then, 100 μL of a solution containing 131 pM of btVEGF165 (Bio-techne, R&D, Abingdon, UK) and the tested compounds at various concentration diluted in PBS containing 1% DMSO were added in each well. After 3 h stirring at 37 °C, the plate was washed four times with buffer A and 100 μL of streptavidin-horseradish peroxidase (Amersham Biosciences, Little Chalfont, UK) diluted at 1:8000 in PBS containing 0.1% (v/v) Tween 20 and 0.3% (w/v) BSA were added per well. After 1 h of incubation at 37 °C under obscurity and stirring, the plate was washed five times with 250 μL of buffer A and 100 μL of SuperSignal West Pico chemiluminescent substrate (Pierce, Appleton, WI, USA) were added. The remaining bt-VEGF165 was detected by chemiluminescence, which was quantified. The percentages of btVEGF165 displacement were calculated by the following formula: percentage of displacement = 100 × [1 − (S − NS)/(MS − NS)], where S is the signal measured, NS is the nonspecific binding signal and MS is the maximum binding signal observed with btVEGF165 without compounds tested. […] Each experiment was performed three times in triplicate.
# [2] = target: T1, extracellular domain (ECD, D1–D7) of VEGFR1; settings: cited from earlier work
Substance,"% of Displacement, 100 μM [1] [%]","% of Displacement, 30 μM + EDTA [1] [%]","% of Displacement, 30 μM [1] [%]",IC50 [1] [µM],"IC50 ([2]; displacement of biotinylated VEGF165 from VEGFR1 ECD, previous study, read-out: IC50 (relative inhibitory concentration 50)) [µM]","% of Displacement, 100 μM ([2]; percentage of biotinylated VEGF165 displaced by 100 μM peptide on whole extracellular domain (ECD, D1–D7) of VEGFR1, previously described peptides) [%]"
Ac-SSEEYARNWAAWN-NH2 [Compound 8],63 ± 2,40 ± 7,63 ± 1,25.6,,
Ac-SSEEFARNWAAIN-NH2 [Compound 29],72 ± 1,71 ± 2,60 ± 3,0.046,,
Ac-SSEEWARNFAAFN-NH2 [Compound 10],55 ± 1,55 ± 4,64 ± 3,14.5,,
"Ac-KLTWQELYQLKYKGI-NH2 [QK, proangiogenic peptide of D'Andrea and co-workers]",,,,,32 ± 8,69 ± 3
Ac-SSEEWARNYAAFN-NH2 [Compound 16],62 ± 1,44 ± 5,71 ± 2,21.3,,
Ac-SSEEYARNWAAFN-NH2 [Compound 14],58 ± 1,56 ± 6,62 ± 4,14,,
Ac-SSEEFARNWAAFN-NH2 [Compound 12],55 ± 1,53 ± 4,66 ± 1,48.6,,
Ac-SSEEFARNIAAYN-NH2 [Compound 32],60 ± 1,55 ± 1,59 ± 4,30.4,,
